Results taken from publication PMC5362474 (Oncotarget, 2017).

Assays:
[1] = biological target: T1, recombinant human c-Met residues 974-end (Homo sapiens, UniProt P08581); test: Inhibition of c-Met kinase (TR-FRET); format: biochemical; settings: for inhibition at 0.19 µM / inhibition at 0.39 µM / inhibition at 0.78 µM / inhibition at 1.56 µM / inhibition at 3.12 µM / inhibition at 6.25 µM / inhibition at 12.5 µM / inhibition at 25 µM / inhibition at 50 µM / inhibition at 100 µM: read-out: Inhibitory rate on c-Met kinase; for inhibition at 12.5 µM: 12.50 μM; for IC50: TR-FRET, read-out: IC50 against c-Met kinase; for c-Met Inhibition rate (%): concentration not given
T1 construct: recombinant human c-Met residues 974-end; 6His; purchased Millipore
Protocol: The inhibitions of c-Met kinase were investigated referred to a published literature. The IC50 values were detected using TR-FRET. 50 nM 6 His-tagged recombinant human c-Met residues 974-end (Millipore) was cultured in medium containing 2.5 m mol/L MnCl2, 10 m mol/L MgCl2, 20 m mol/L Tris, 2 m mol/L DTT and 0.01% Tween 20 with 5 m mol/L ATP and 200 n mol/L 5FAM-KKK -[…]-NH2 with 25 μL at room temperature for 60 min. Compounds were made up to 100 μM solutions and were tested with 10 concentration gradients by two times dilutions. Each group was tested for three times Reactions were termined by IMAP stop solution. Plates were incubated for an overnight and analyzed by using AiphaQuest.

Hela cells = test: MTT proliferation assay on HeLa cells; format: cell-based; settings: Homo sapiens
Protocol: (§1) MTT assay was then applied at 24 h, 48 h. […] However, all the compounds were active against Bel-7402, HepG2, A549 and HeLa cells to some extent. […] Before we began to design these compounds, we carefully studied these references. […] Hu C T, et al., Wang SY, et al. and Xie B, et al. reported that HepG2 was inhibited by inhibiting c-Met/HGF signaling pathway. […] Further research works on activities are currently under investigation and will be reported in due course. […] Proliferation of cells was evaluated by MTT assay. Cells were inoculated at 1.0 × 10^4 cells/mL with 200 μL in each well of 96-well plate and allowed to adhere to the plates overnight. […] After removal of the medium, cells were treated with 150 μL of DMSO and shaken for 15 min to completely dissolve the formazan crystals. The absorbances at 590 nm of the dissolved solutions were detected using a SpectraMAX190 microplate reader (Molecular Devices, USA).

A549 cells = test: MTT proliferation assay on A549 cells; format: cell-based; settings: Homo sapiens
Protocol: as §1

Bel-7402 cells = test: MTT proliferation assay on Bel-7402 cells; format: cell-based; settings: Homo sapiens
Protocol: as §1

HepG2 cells = test: MTT proliferation assay on HepG2 cells; format: cell-based; settings: Homo sapiens
Protocol: as §1

T1 sequence (P08581 974-1390 limits assumed): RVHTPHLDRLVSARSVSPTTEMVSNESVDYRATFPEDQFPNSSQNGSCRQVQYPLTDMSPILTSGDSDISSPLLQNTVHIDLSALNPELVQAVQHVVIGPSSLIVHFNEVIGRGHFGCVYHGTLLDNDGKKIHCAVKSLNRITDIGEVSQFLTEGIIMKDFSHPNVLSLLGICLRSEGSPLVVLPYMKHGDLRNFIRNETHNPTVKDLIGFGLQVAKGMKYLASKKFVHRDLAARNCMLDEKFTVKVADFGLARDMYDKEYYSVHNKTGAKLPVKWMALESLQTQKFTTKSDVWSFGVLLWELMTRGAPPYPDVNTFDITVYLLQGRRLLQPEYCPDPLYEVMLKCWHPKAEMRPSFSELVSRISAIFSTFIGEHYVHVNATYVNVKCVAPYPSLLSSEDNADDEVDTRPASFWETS

Structure (SMILES)	inhibition at 0.19 µM [1] [%]	inhibition at 0.39 µM [1] [%]	inhibition at 0.78 µM [1] [%]	inhibition at 1.56 µM [1] [%]	inhibition at 3.12 µM [1] [%]	inhibition at 6.25 µM [1] [%]	inhibition at 12.5 µM [1] [%]	inhibition at 25 µM [1] [%]	inhibition at 50 µM [1] [%]	inhibition at 100 µM [1] [%]	IC50 [1] [µM]	c-Met Inhibition rate (%) [1] [%]	IC50 (Hela cells; 24 h) [µM]	IC50 (Hela cells; 48 h) [µM]	IC50 (A549 cells; 24 h) [µM]	IC50 (A549 cells; 48 h) [µM]	IC50 (Bel-7402 cells; 24 h) [µM]	IC50 (Bel-7402 cells; 48 h) [µM]	IC50 (HepG2 cells; 24 h) [µM]	IC50 (HepG2 cells; 48 h) [µM]
CC(C)=C1C/C=C(\C)CC/C=C(\C)CC1OC(=O)/C=C\c1ccccc1 (centres unmarked) [Compound 3e, (Z)-(3E,7E)-3,7-dimethyl-10-(propan-2-ylidene)cyclodeca-3,7-dien-1-yl-3-phenylacrylate]	28.28 ± 0.22	42.75 ± 0.35	48.01 ± 0.39	61.4 ± 0.64	67.5 ± 0.77	70.31 ± 0.59	75.7 ± 0.78	80 ± 0.91	85.3 ± 0.87	88.4 ± 0.99	0.87	41	86.55 ± 0.8	88.24 ± 0.84	90.11 ± 0.75	88.21 ± 0.81	75.9 ± 0.81	79.2 ± 0.89	72.48 ± 0.64	69.98 ± 0.68
CC(C)=C1C/C=C(\C)CC/C=C(\C)CC1OC(=O)c1ccc(C)cc1 (centres unmarked) [Compound 3b, (3E,7E)-3,7-dimethyl-10-(propan-2-ylidene)cyclodeca-3,7-dien-1-yl-4-methylbenzoate]	35.6 ± 0.44	46.9 ± 0.51	54.47 ± 0.47	63.4 ± 0.66	67.05 ± 0.59	72.56 ± 0.67	77.8 ± 0.81	81.24 ± 0.77	86 ± 0.93	88.8 ± 1.11	0.56	56	83.64 ± 0.73	83.78 ± 0.76	84.85 ± 0.71	81.9 ± 0.88	75.9 ± 0.96	74.2 ± 0.83	68.2 ± 0.69	71.5 ± 0.82
CC(C)=C1C/C=C(\C)CC/C=C(\C)CC1OC(=O)c1ccc(C(F)(F)F)cc1 (centres unmarked) [Compound 3d, (3E,7E)-3,7-dimethyl-10-(propan-2-ylidene)cyclodeca-3,7-dien-1-yl-4-(trifluoromethyl)benzoate]	31.56 ± 0.27	40.88 ± 0.35	47.08 ± 0.44	59.03 ± 0.57	64.22 ± 0.59	69 ± 0.74	75.5 ± 0.88	80.6 ± 0.84	85.4 ± 0.96	87.7 ± 0.95	0.92	38	91.25 ± 0.87	93.31 ± 0.9	93.48 ± 0.79	95.9 ± 0.97	80.1 ± 1.19	77.56 ± 0.77	74.7 ± 0.99	78.85 ± 0.77
CC(C)=C1C/C=C(\C)CC/C=C(\C)CC1OC(=O)c1cccc(C)c1 (centres unmarked) [Compound 3c, (3E,7E)-3,7-dimethyl-10-(propan-2-ylidene)cyclodeca-3,7-dien-1-yl-3-methylbenzoate]	33.8 ± 0.45	42.6 ± 0.51	48 ± 0.62	59.6 ± 0.66	64.5 ± 0.73	70 ± 0.81	73.79 ± 0.69	78.9 ± 0.87	83.7 ± 0.95	87.4 ± 1.2	0.83	47	84.1 ± 0.71	82.54 ± 0.64	88.52 ± 0.53	87.2 ± 0.94	75.5 ± 1.05	78.55 ± 0.51	70.2 ± 0.87	67.84 ± 0.48
CC(=O)OC1C/C(C)=C/CC/C(C)=C/CC1=C(C)C (centres unmarked) [Compound 3a, (3E,7E)-3,7-dimethyl-10-(propan-2-ylidene)cyclodeca-3,7-dien-1-yl-acetate]	26.3 ± 0.37	40 ± 0.43	47.2 ± 0.57	58.5 ± 0.69	65 ± 0.74	69 ± 0.76	74.6 ± 0.81	79.3 ± 0.85	84.3 ± 0.93	86.9 ± 0.97	1.06	31	149.3 ± 1.33	153 ± 1.65	162.2 ± 1.55	169 ± 1.74	157.3 ± 1.33	166.2 ± 1.51	147.7 ± 1.47	152 ± 1.71
CC(C)=C1C/C=C(\C)CC/C=C(\C)CC1=O [Compound 1, germacrone, reference compound]	23.4 ± 0.33	39.1 ± 0.45	47 ± 0.55	58.8 ± 0.61	65.4 ± 0.67	69.2 ± 0.77	73.7 ± 0.89	77.5 ± 0.97	82.1 ± 1.21	88 ± 1.01	1.15	27	160.7 ± 1.54	168 ± 1.81	180 ± 2.14	177 ± 1.87	173.5 ± 1.53	177 ± 1.97	170 ± 2.07	175 ± 1.88
CC(C)=C1C/C=C(\C)CC/C=C(\C)CC1O (centres unmarked) [Compound 2, (3E,7E)-3,7-dimethyl-10-(propan-2-ylidene)cyclodeca-3,7-dienol]	20 ± 0.27	34.9 ± 0.37	43.1 ± 0.52	55.2 ± 0.61	59.88 ± 0.53	64.16 ± 0.64	69.98 ± 0.59	74.21 ± 0.69	78.2 ± 0.88	81.2 ± 0.94	1.77	23	157.3 ± 1.47	163 ± 1.73	177 ± 1.8	185 ± 1.99	167 ± 1.91	166 ± 1.83	155 ± 1.75	161.5 ± 1.32
